Data on eight compounds can be found in article PMC4326221 (Science translational medicine, 2014).

The target of one data set is T1, human GGPPS (Homo sapiens, UniProt O95749).
T1 sequence (O95749 1-300): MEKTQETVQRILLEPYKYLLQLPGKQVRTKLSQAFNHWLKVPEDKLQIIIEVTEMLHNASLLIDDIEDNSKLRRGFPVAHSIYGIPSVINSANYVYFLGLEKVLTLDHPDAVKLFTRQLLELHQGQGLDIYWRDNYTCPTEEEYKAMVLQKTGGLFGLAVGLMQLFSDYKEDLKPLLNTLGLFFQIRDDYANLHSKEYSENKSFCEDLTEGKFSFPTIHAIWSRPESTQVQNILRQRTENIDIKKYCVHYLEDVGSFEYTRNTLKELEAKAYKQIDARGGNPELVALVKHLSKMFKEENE
Nature of the data set: GGPPS enzymatic inhibition assay. The note with it: read-out: GGPPS Ki, in vitro. In kind it is biochemical.

For data set [1], the system named is HRAS, KRAS and RAP1A prenylation in U2OS cells expressing Flag-KRAS G12D. Nature of the data set: cell fractionation assay of protein prenylation. In kind it is cell-based. The note with it: 48 h, BPH-1222 10 μM, BPH-714 10 μM, zoledronate 20 μM.
The test system of data set [2] is GTP-bound KRAS in mouse lung cancer cells (M3L2). Nature of the data set: KRAS-GTP pull-down with RAF-1 RBD beads. The note with it: 48 h. In kind it is cell-based.
In data set [3] the test system is CHOP, BiP, LC3 in mouse lung cancer cells (6#). Nature of the data set: ER stress and autophagy markers by immunoblotting. In kind it is cell-based.
A further data set is described as follows: pharmacokinetics test. It is filed as in vivo. The note with it: single i.v. injection 5 mg/kg, female SD rats.
Data set [4] relates to Mouse lung cancer cells (6#). Briefly: drug treatment of 6# cells, phase-contrast microscopy. The note with it: for effect on cell proliferation / cell death: FTI-277 15 μM, GGTI-298 15 μM, BPH-1222 10 μM. It is filed as cell-based.
For another data set, the system named is FPPS. The conditions noted are these: cited from earlier work.
The subject of data set [5] is p70 S6 kinase and 4E-BP1 phosphorylation in mouse lung cancer cells (6#). Briefly: mTOR substrate phosphorylation by immunoblotting. It is filed as cell-based. The conditions noted are these: 6# cells, rapamycin 0.1 μM, 48 h.
Another data set relates to KRAS tumors. Briefly: zoledronate plus rapamycin in vivo. The conditions noted are these: fig. S4D, E.

Where “and” joins values, the source holds several entries; their conditions need not be identical. Identical values can stand only once.

What is called Ki is the equilibrium dissociation constant of an inhibitor or competing ligand from its target. In the case of `CCCCCCCCn1cc[n+](CC(O)(P(=O)([O-])O)P(=O)(O)O)c1` (centres unmarked) [BPH-1222], the inhibitory constant (Ki) at human GGPPS is ~300 nM and 300 nM. The “inhibition of protein farnesylation and geranylgeranylation (HRAS degradation, RAP1A dislodgement)” value in [1] was “robustly inhibited protein farnesylation as well as protein geranylgeranylation”. Further, the “amount of GTP-bound KRAS” value in data set [2] is “greatly reduced the amount of GTP-bound KRAS”. Further, the “ER stress markers CHOP and BiP protein levels” value in data set [3] (6# cells, 10 μM, 1, 2, or 3 days) is “potently induced”. In addition, the “time to autophagy induction (accumulation of PE-conjugated LC3)” value in data set [3] (tumor cells treated with BPH-1222) lay in the range of 2 to 3 days. For the same compound, in “pharmacokinetics test”, the pharmacokinetic properties result is “good pharmacokinetic properties”. Turning to `COC(=O)[C@H](CCSC)NC(=O)c1ccc(NC[C@@H](N)CS)cc1-c1ccccc1` [FTI-277], the “effect on cell proliferation / cell death” value in data set [4] is “little effect on cell proliferation”. For `CC(C)=CCC/C(C)=C/CC/C(C)=C/CC/C(C)=C/CO` [GGOH, geranylgeraniol], the “rescue from bisphosphonate-induced cell death” value in data set [4] (supplementation 10 μM with BPH-1222 10 μM, 48 h) was “substantially rescued cells”. With `COC(=O)[C@H](CC(C)C)NC(=O)c1ccc(NC[C@@H](N)CS)cc1-c1cccc2ccccc12` [GGTI-298], the “effect on cell proliferation / cell death” value in data set [4] is “little effect on cell proliferation”. `NCCCC(O)(P(=O)(O)O)P(=O)(O)O` [alendronate]: in the data set with FPPS, the FPPS inhibition entry was “inhibit FPPS”. Take `CO[C@H]1C[C@@H]2CC[C@@H](C)[C@@](O)(O2)C(=O)C(=O)N2CCCC[C@H]2C(=O)O[C@H]([C@H](C)C[C@@H]2CC[C@@H](O)[C@H](OC)C2)CC(=O)[C@H](C)/C=C(\C)[C@@H](O)[C@@H](OC)C(=O)[C@H](C)C[C@H](C)/C=C/C=C/C=C/1C` [rapamycin]: the “phosphorylation of mTOR substrates (p70 S6 kinase and 4E-BP1)” value in data set [5] is “potently blocked phosphorylation”. Take `O=P(O)(O)C(O)(Cc1cccnc1)P(=O)(O)O` [risedronate]: in the data set on FPPS, the FPPS inhibition result is reported as “inhibit FPPS”.

With `O=P(O)(O)C(O)(Cn1ccnc1)P(=O)(O)O` [zoledronate], the “synergy with rapamycin for killing KRAS tumors” value in the data set with KRAS tumors is listed as “synergizes with rapamycin in vivo”. Besides, the FPPS inhibition result in the data set with FPPS is “inhibit FPPS”.
